≈ marks a conversion by molar mass, not a printed value. Calls of active or inactive are those of the source. The calls are words filed in the database; no cut-off is given here.
Key:
[1] = test system: MOVAS-1; experiment: Angiogenesis activity in mouse MOVAS-1 assessed as increase of cell migration using conditioned medium of mouse C2C12 cells with silenced HIF-1alpha treated at 30 uM under hyperglycemic condition for 12 hrs followed by hypoxia for 24 hrs by crystal violet dye based transwell assay; format: functional; settings: time 36.0 hrs
[2] = test system: C2C12; experiment: Induction of F-actin polymerization in mouse C2C12 cells at 30 uM pretreated with compound for 12 hr followed by hypoxic condition for 24 hrs by phalloidin staining based confocal microscopy; format: functional, cell-based; settings: time 36.0 hrs
[3] = test system: Mus musculus; experiment: Antidiabetic activity in diabetic HLI C57BL/6 mouse model assessed as effect on blood glucose level at 15 mg/kg administered intramuscular; format: functional, organism-based
[4] = Protein binding in human plasma by balanced dialysis method; format: ADME, cell-free; settings: read-out: PPB (converted)
[5] = test system: C2C12; experiment: Reversal of hyperglycemia-induced PDGF-BB protein level reduction in mouse C2C12 cells measured at 30 uM by Western blot analysis; format: functional, cell-based
[6] = Water solubility of the compound by HPLC analysis
[7] = Permeability coefficient across apical to basolateral side in human Caco-2 cells by HPLC-UV analysis
[8] = Octanol/Water partition coefficient, log P of the compound by HPLC-UV analysis
[9] = test system: Mus musculus; experiment: Angiogenesis activity in diabetic HLI C57BL/6 mouse model assessed as HIF-1alpha protein expression at 100 mg/kg, im administered for 21 days followed by surgery by Western blot analysis; format: functional, organism-based; settings: time 21.0 day
[10] = test system: Mus musculus; experiment: Antidiabetic activity in diabetic HLI C57BL/6 mouse model assessed as morphological changes at 100 mg/kg administered intramuscularly; format: functional, organism-based
[11] = test system: MOVAS-1; experiment: Induction proliferation of mouse MOVAS-1 cells assessed as increase in number of EdU-positive cells using conditioned medium of mouse C2C12 cells treated at 30 uM under hyperglycemic condition for 12 hrs followed by hypoxia for 24 hrs by EdU-incorporation assay; format: functional; settings: time 36.0 hrs
[12] = Metabolic stability in rat leg muscle homogenates assessed as compound remaining after 30 min by HPLC analysis; format: ADME, tissue-based, muscle of leg; settings: read-out: Stability
[13] = test system: HUVEC; experiment: Induction proliferation of human HUVEC cells assessed as increase in number of EdU-positive cells using conditioned medium of mouse C2C12 cells with silenced HIF-1alpha treated at 30 uM under hyperglycemic condition for 12 hrs followed by hypoxia for 24 hrs by EdU-incorporation assay; format: functional, cell-based; settings: time 36.0 hrs
[14] = test system: HUVEC; experiment: Angiogenesis activity in human HUVEC cells assessed as increase of cell migration using conditioned medium of mouse C2C12 cells with silenced HIF-1alpha treated at 30 uM under hyperglycemic condition for 12 hrs followed by hypoxia for 24 hrs by crystal violet dye based transwell assay; format: functional; settings: time 36.0 hrs
[15] = test system: Mus musculus; experiment: Angiogenesis activity in diabetic HLI C57BL/6 mouse model assessed as VEGF-A protein expression at 100 mg/kg, im administered for 21 days followed by surgery by Western blot analysis; format: functional, organism-based; settings: time 21.0 day
[16] = test system: Mus musculus; experiment: Angiogenesis activity in diabetic HLI C57BL/6 mouse model assessed as PDGF-BB protein expression at 100 mg/kg, im administered for 21 days followed by surgery by Western blot analysis; format: functional, organism-based; settings: time 21.0 day
[17] = test system: Mus musculus; experiment: Antidiabetic activity in diabetic HLI C57BL/6 mouse model assessed as increase in blood perfusion recovery at 100 mg/kg administered intramuscularly; format: functional, organism-based
[18] = test system: MOVAS-1; experiment: Angiogenesis activity in mouse MOVAS-1 cells assessed as suppression of cell migration using conditioned medium of mouse C2C12 cells treated at 30 uM under hyperglycemic condition for 12 hrs followed by hypoxia for 24 hrs by crystal violet dye based transwell assay; format: functional; settings: time 36.0 hrs
[19] = test system: HUVEC; experiment: Angiogenesis activity in human HUVEC cells assessed as suppression of cell migration using conditioned medium of mouse C2C12 cells treated at 30 uM under hyperglycemic condition for 12 hrs followed by hypoxia for 24 hrs by crystal violet dye based transwell assay; format: functional; settings: time 36.0 hrs
[20] = Dissociation constant, pKa of compound by UV-visible spectrometric method; format: physicochemical
[21] = test system: MOVAS-1; experiment: Induction proliferation of mouse MOVAS-1 assessed as increase in number of EdU-positive cells using conditioned medium of mouse C2C12 cells with silenced HIF-1alpha treated at 30 uM under hyperglycemic condition for 12 hrs followed by hypoxia for 24 hrs by EdU-incorporation assay; format: functional, cell-based; settings: time 36.0 hrs
[22] = Permeability coefficient across basolateral to apical side in human Caco-2 cells by HPLC-UV analysis
[23] = test system: MOVAS-1; experiment: Angiogenic activity in mouse MOVAS-1 cells assessed as suppression of F-actin polymerization at 30 uM using conditioned medium of mouse C2C12 cells treated at 30 uM under hyperglycemic condition for 12 hrs followed by hypoxia for 12 hrs by phalloidin staining based confocal microscopy; format: functional, cell-based; settings: time 24.0 hrs
[24] = test system: HUVEC; experiment: Angiogenic activity in human HUVEC cells assessed as suppression of F-actin polymerization at 30 uM using conditioned medium of mouse C2C12 cells treated at 30 uM under hyperglycemic condition for 12 hrs followed by hypoxia for 12 hrs by phalloidin staining based confocal microscopy; format: functional, cell-based; settings: time 24.0 hrs
[25] = Stability in rat plasma assessed as compound remaining at 6.25 to 25 mg/L after 12 hrs by HPLC analysis; format: ADME, cell-free; settings: at 6.25 to 25 µg/mL, dose 6.25-25 mg/L, read-out: Stability
[26] = Microsomal stability in rat liver microsomes assessed as compound remaining after 30 min by HPLC analysis; format: ADME, Microsome; settings: read-out: Stability
[27] = Efflux ratio of Apparent permeability across basolateral to apical side over apical to basolateral side in human Caco-2 cells
[28] = test system: C2C12; experiment: Induction of cell migration in mouse C2C12 cells at 30 uM under hyperglycemic condition incubated for 24 hrs by crystal violet dye based transwell chamber assay; format: functional
[29] = test system: HUVEC; experiment: Induction proliferation of human HUVEC cells assessed as increase in number of EdU-positive cells using conditioned medium of mouse C2C12 cells treated at 30 uM under hyperglycemic condition for 12 hrs followed by hypoxia for 24 hrs by EdU-incorporation assay; format: functional; settings: time 36.0 hrs
[30] = test system: C2C12; experiment: Reversal of hyperglycemia-induced PDGF-BB protein level reduction in mouse C2C12 cells measured at 30 uM by ELISA; format: functional, cell-based
[31] = test system: C2C12; experiment: Reversal of hyperglycemia-induced VEGF-A protein level reduction in mouse C2C12 cells measured at 30 uM by ELISA; format: functional, cell-based
[32] = test system: C2C12; experiment: Reversal of hyperglycemia-induced VEGF-A protein level reduction in mouse C2C12 cells measured at 30 uM by Western blot analysis; format: functional, cell-based

fraction unbound [4]: 0.873
solubility [6]: 472 mg/mL (≈ 1570 mM)
Papp A→B [7]: 2.71 ×10⁻⁶ cm/s
logP [8]: -2.42
remaining at 0.5 h [12]: 35.8%
pKa [20]: 10.1
Papp B→A [22]: 2.95 ×10⁻⁶ cm/s
remaining at 12 h [25]: 99.4%
remaining at 0.5 h [26]: 43.3%
efflux ratio [27]: 1.09
SMILES: OC[C@H]1O[C@@H](OCCc2ccc(O)cc2)[C@H](O)[C@@H](O)[C@@H]1O [SALIDROSIDE]
Activity [1]: Active
Activity [2]: Active
Activity [3]: Active
Activity [5]: Active
Activity [9]: Active
Activity [10]: Active
Activity [11]: Active
Activity [13]: Active
Activity [14]: Active
Activity [15]: Active
Activity [16]: Active
Activity [17]: Active
Activity [18]: inactive
Activity [19]: inactive
Activity [21]: Active
Activity [23]: inactive
Activity [24]: inactive
Activity [28]: Active
Activity [29]: Active
Activity [30]: Active
Activity [31]: Active
Activity [32]: Active

From ChEMBL document CHEMBL5038635, “Discovery of Salidroside-Derivated Glycoside Analogues as Novel Angiogenesis Agents to Treat Diabetic Hind Limb Ischemia” (J Med Chem, 2022)
